Test results from patent US9770460B2, “Non-digestible oligosaccharides for oral induction of tolerance against dietary proteins” (N.V. NUTRICIA, priority 2010, dated 2017).
Where no end group is shown, it is not given here.

System: whey sensitized animals
Assay: Mouse model of whey protein allergy: ear swelling after oral pretreatment with peptide mixtures (Example 4)
Assay type: in vivo, mice
Settings: Example 4, pretreatment prior to whey sensitization
From the text: Three- to four-week-old pathogen free female C3H/HeOuJ mice (Charles River Laboratories, Maastricht, The Netherlands) were used for this experiment. The mice were maintained on cow's milk protein free standard mouse chow (AIN-93G soy, Special Diets Services, Wijk bij Duurstede, the Netherlands).
The AIN-93G control diet was mixed with non-digestible oligosaccharides (2% w/w). The same non-digestible oligosaccharides were used as in example 1.
18-amino-acid-long synthetic peptides of beta-lactoglobulin were obtained from JPT Peptide Technologies (Berlin, Germany) (Table 4). Whey protein was purchased from DMV International (Veghel, The Netherlands). […]. Phosphate-buffered saline (PBS) was obtained from Cambrex Bio Science (Verviers, Belgium).
Shortly prior to the experiment, the peptides were suspended in PBS. The peptides were combined in three mixtures, namely peptides 1-4 in mixture 1, peptides 5-7 in mixture 2 and peptides 8 and 9 in mixture 3. The final concentration of each peptide in the mixture was 8 mg/ml. […] Before and 1 h after the challenge, the ear thickness was measured using a digital micrometer (Mitutoyo, Veenendaal, the Netherlands). The difference in the ear thickness (ear swelling) is an indication for the acute allergic response and is expressed as delta μm.

How did the “allergic response / synergy with NDO, in words” value turn out when “AASDISLLDAQSAPLRVY [Peptide 3, beta-lactoglobulin AA 25-42]” was run?
Its value is “did not show these synergistic effects with NDO”.
